Literature values in US10980718B2, “Personal care compositions comprising poorly soluble compounds” (Conopco, Inc., priority 2016, dated 2021).

In the case of `N[C@@H](CSSC[C@H](N)C(=O)O)C(=O)O` [cystine], the “solubility of cystine in aqueous solutions by pH” value (aqueous solutions with pH less than 2 or pH above 8) is listed as “more soluble” and the “natural solubility limit of cystine” value (room temperature and neutral pH) is listed as 0.01 wt %.
